Here are results for 13 compounds from patent publication US20240308985A1 (Psy Therapeutics, Inc., priority 2021, published 2024).

The nature of data set [1]: Pharmacokinetic study of compounds in mice (brain exposure). It counts as in vivo, male C57BL/6 mice. To be noted: oral. How it is done:
Healthy male C57BL/6 mice (8-12 weeks old) weighing between 17 to 35 g were procured from Global, India. Temperature and humidity were maintained at 22±f3° C. and 30-70%, respectively and illumination was controlled to give a sequence of 12 hr light and 12 hr dark cycle. Temperature and humidity were recorded by auto-controlled data logger system. All the animals were provided laboratory rodent diet. Reverse osmosis water treated with ultraviolet light was provided ad libitum.
Protocol A: Twenty-four male mice were divided into two groups as; Group 1: 30 mg/kg/IP; Plasma and brain; Number of animals=12: Animal #1-12. Group 2: 30 mg/kg/PO; Plasma and brain; Number of animals=12; Animal #13-24. Animals in Group 1 were administered intraperitoneally with solution formulation of PSY-05-00074-001 in 5% NMP, 5% Solutol HS-15 and 90% normal saline at 30 mg/kg dose. Animals in Group 2 were administered orally with solution formulation of PSY-05-00074-001 in 5% NMP, 5% Solutol HS-15 and 90% normal saline at 30 mg/kg dose. Blood samples (approximately 60 μL) were collected under light isoflurane anesthesia from retro orbital plexus at 0.25, 0.5, 1, 2, 4 and 8 hr (IP and PO). Plasma samples were separated by centrifugation of whole blood and stored below −70° C. until bioanalysis. Immediately after collection of blood from intraperitoneal and oral group animals, animals were euthanized with excess CO2 and brain samples were collected from set of two mice at each time point. Brain samples were divided into two parts. Half brain samples were homogenized using ice-cold phosphate buffer saline (pH—7.4) and homogenates were stored below −70±10° C. until analysis. Total homogenate volume was three times the brain weight. Other part of brain was stored below −70±10° C. for further analysis. All samples were processed for analysis by protein precipitation using acetonitrile and analyzed with fit-for-purpose LC/MS/MS method (LLOQ—2.02 ng/mL for plasma and 6.06 ng/g for brain). Pharmacokinetic parameters were calculated using the non-compartmental analysis tool of Phoenix WinNonlin®.
Protocol B: Thirty six mice were included into the study and divided in to three groups as Group 1 (n=12), Group 2 (n=12) and Group 3 (n=12) with n=2 mice per time-point design. Animals in Group 1 were administered intravenously with solution formulation of PSY-05-00414-001 at 5 mg/kg dose. Animals in Group 2 were administered orally with solution formulation of PSY-05-00414-001 at a dose of 5 mg/kg. Animals in Group 3 were administered intraperitoneally with solution formulation of PSY-05-00414-001 at 5 mg/kg dose. The formulation vehicle for all the three groups was 5% NMP, 5% Solutol HS-15 and 90% normal saline. Blood samples (approximately 60 μL) were collected under light isoflurane anesthesia from two mice at 0.25, 0.5, 1, 2, 4 and 8 h. Plasma was harvested by centrifugation of blood and stored at −70±10° C. until analysis. After blood collection, brain was perfused and isolated at 0.25, 0.5, 1, 2, 4 and 8 h. Brain samples were dipped thrice in ice-cold phosphate buffer saline, blotted dry and cut in to two equal portion. Half-brain samples from each time-point were weighed and homogenized using ice-cold phosphate buffer saline with twice volume of brain weight making the total homogenate three volumes and stored below −70±10° C. until analysis. Remaining half-portions of brain samples was snap freeze and kept in −70±10° C. until further confirmation from client. Plasma and brain samples were quantified by fit-for-purpose LC-MS/MS method (LLOQ: 1.01 ng/mL for plasma and 2.02 ng/mL for brain).
Protocol C: Fifty four male mice were included in study and divided in to three groups as Group 1 (n=18), Group 2 (n=18) and Group 3 (n=18) with 3 mice/time point design. Animals from Group 1, Group 2 and Group 3 were administered by intravenous, oral and intraperitoneal route with solution formulation of PSY-05-00451-001 at 5 mg/kg dose, respectively. […]

Data set [2] deals with Monoacylglycerol Lipase (MAGL) (Homo sapiens (Human), UniProt Q99685). Description: MAGL inhibition potency (IC50) assay with 4NPA substrate. Format: biochemical.
Sequence of Monoacylglycerol Lipase (MAGL) (Q99685 2-303): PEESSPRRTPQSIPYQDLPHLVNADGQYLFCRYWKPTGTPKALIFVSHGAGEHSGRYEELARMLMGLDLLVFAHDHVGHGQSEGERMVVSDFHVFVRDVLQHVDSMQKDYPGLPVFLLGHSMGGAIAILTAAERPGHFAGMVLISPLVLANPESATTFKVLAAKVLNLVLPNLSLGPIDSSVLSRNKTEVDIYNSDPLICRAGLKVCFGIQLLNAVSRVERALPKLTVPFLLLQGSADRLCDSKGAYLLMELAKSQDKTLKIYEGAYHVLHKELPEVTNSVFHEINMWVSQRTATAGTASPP
For a further data set, the target named is MAGL enzyme (Homo sapiens (Human), UniProt Q99685). Description: MAGL reversible inhibition assay (washout). To be noted: for A: degree to which MAGL enzymatic activity returned following washout of test compounds: pre-washout compound concentration 1 μM; for B: % MAGL activity returning after washout: relative to control (no inhibitor before washout), immediately following a 30 minute washout. It counts as biochemical. On the set-up: B: % MAGL activity returning after washout: concentration or dose not given beside the values. The procedure: The reversible mechanism of MAGL inhibition of a test compound of Formula (I) can be determined. Flag-tagged MAGL enzyme will be immobilized on anti-Flag beads. Immobilized enzyme will be incubated +/− inhibitor at a dose that produces complete inhibition. Colorimetric substrate (4-NPA) will be added and the reaction monitored on a plate reader for 30 minutes to verify complete inhibition. Immobilized enzyme will then be washed thoroughly to remove the inhibitor, and fresh substrate will be added. The reaction will be monitored for an additional 30 minutes; returning enzymatic activity will indicate reversibility of inhibition.
Sequence of MAGL enzyme (Q99685 whole entry): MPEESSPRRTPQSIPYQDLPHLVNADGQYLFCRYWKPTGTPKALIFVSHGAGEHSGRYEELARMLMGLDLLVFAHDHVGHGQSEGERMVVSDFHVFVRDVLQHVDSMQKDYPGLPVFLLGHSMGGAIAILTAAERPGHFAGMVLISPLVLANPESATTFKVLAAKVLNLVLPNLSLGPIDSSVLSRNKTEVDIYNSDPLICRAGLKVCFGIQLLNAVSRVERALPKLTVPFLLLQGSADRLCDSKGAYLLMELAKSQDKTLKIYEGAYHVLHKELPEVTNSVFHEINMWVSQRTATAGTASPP
MAGL enzyme was incubated for 30 minutes in the presence of 40× the IC50 concentration of inhibitor. Enzyme+inhibitor mix was then diluted 40-fold so that the final concentration of the inhibitor equaled the IC50 concentration. Substrate was added and the reaction was monitored for 30 minutes.

Another data set has as its target human recombinant FAAH (Homo sapiens (Human), UniProt O00519). Description: FAAH inhibition potency counter screen (IC50). Format: biochemical. How it is done:
Comparative compound potency at FAAH can be obtained with the following assay.
MAGL inhibitor compounds were also counter-screened for FAAH inhibition potency using the following assay. Assessment of FAAH inhibition was performed using Fatty Acid Amide Hydrolase Inhibitor Screening Assay Kit (Cayman Item No. 10005196) following manufacture's instruction with some modifications. The kit utilizes human recombinant FAAH and the fluorescent substrate, AMC Arachidonoyl amide (AAMCA). 5 μL of assay buffer (125 mM Tris, pH 9.0, 1 mM EDTA, i.e. ethylenediaminetetraacetic acid) was added to a 384-well black plate (Corning, 3573). Test compounds and control inhibitor JZL-195 (Cayman Chemical, 13668) were tested in 10-concentration IC50 mode with 3-fold serial dilution at a starting concentration of 100 μM and 10 μM, respectively. 300 nL or 30 nL of test compounds were delivered into a 384-well black plate (Corning, 3573) using a Labcyte Echo, followed by addition of 15 μL of FAAH enzyme (Cayman, 700302) in assay buffer. After a 5-minute pre-incubation at room temperature, 10 μL of AAMCA was added in assay buffer to start the reaction. Final concentration of FAAH enzyme is not specified and AAMCA substrate was used at the 20 uM. After these dilutions, the final concentration of the test compounds ranged from 100 μM to 5.08 nM or 10 μM down to 0.508 nM. The reaction was allowed to progress for 60 minutes, while the plate was read on an Envision plate reader at an Ex/Em of 350/460 nm with readings every minute. The data was analyzed in Microsoft Excel, using the slope between 30 and 59 minutes. The average of the no-enzyme wells (background) was subtracted from the data. The background-subtracted slope data was converted to % activity using the average of wells with enzyme and DMSO vehicle. IC50 values were calculated using GraphPad software (Sigmoidal dose response, variable slope equation).
Compounds listed in Table D2 were tested in the FAAH Counterscreen of Example 23

The mark [3] stands for this setting: Method 12: Reaction Biology MAGL enzyme, 15 nM, read-out: MAGL Potency (Detection Method).
The mark [4] stands for this setting: Method A: starting concentration of 100 μM.
Where [5] appears, read: Method 2: Cayman Chemical MAGL enzyme, 10 nM, read-out: MAGL Potency (Detection Method).
The mark [6] stands for this setting: Method B: starting concentration of 10 μM.

Like-named read-outs stand apart in the source and are kept apart here.

Sequence of human recombinant FAAH (O00519 whole entry): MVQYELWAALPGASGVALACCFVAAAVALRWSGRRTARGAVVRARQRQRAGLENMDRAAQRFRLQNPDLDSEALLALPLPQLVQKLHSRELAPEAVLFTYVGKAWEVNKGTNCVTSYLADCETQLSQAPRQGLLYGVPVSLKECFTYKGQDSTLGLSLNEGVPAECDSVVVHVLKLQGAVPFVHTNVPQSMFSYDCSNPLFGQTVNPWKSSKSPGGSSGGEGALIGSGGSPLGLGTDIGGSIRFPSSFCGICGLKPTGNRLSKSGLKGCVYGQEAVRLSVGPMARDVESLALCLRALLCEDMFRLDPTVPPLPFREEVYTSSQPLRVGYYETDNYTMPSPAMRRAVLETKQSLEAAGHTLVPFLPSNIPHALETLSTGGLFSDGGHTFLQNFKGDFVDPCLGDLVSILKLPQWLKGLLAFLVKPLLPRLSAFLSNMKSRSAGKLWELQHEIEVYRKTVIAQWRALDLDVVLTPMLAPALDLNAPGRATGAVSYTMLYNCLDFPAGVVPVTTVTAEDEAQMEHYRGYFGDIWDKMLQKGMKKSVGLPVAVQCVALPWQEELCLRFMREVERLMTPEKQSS

Turning to `O=C(c1ccc(F)cc1OC1CC1)N1CC2(CC(n3nc(-c4ccccc4C(F)(F)F)cc3C(F)(F)F)C2)C1` (single isomer, unassigned) [Compound 451, (2-cyclopropoxy-4-fluorophenyl)(6-{5-(trifluoromethyl)-3-[o-(trifluoromethyl)phenyl]-1-pyrazolyl}-2-aza-2-spiro[3.3]heptyl)methanone], in data set [1] (5 mg/kg), the “AUClast” value was determined as 1204.22 ng·h/mL and the “Cmax” value is on record as 271.39 ng/g.
In the case of `Cc1cnn(C2CC3(C2)CN(C(=O)c2cc(O)ccc2F)C3)c1-c1cc(F)ccc1F` (single isomer, unassigned) [Compound 476, (6-(5-(2,5-Difluorophenyl)-4-methyl-1H-pyrazol-1-yl)-2-azaspiro [3.3]heptan-2-yl) (2-fluoro-5-hydroxyphenyl) methanone], in data set [1] (5 mg/kg), the “AUClast” value turned out to be 223.64 ng·h/mL and the “Cmax” value was determined as 72 ng/g. The IC50 in data set [2] (Method 13: Reaction Biology MAGL enzyme, 12 nM, read-out: MAGL Potency (Detection Method)) was in the range of 0.05 to 0.15 µM.
`Cc1cnn(C2CC3(C2)CN(C(=O)c2cc(O)ccc2F)C3)c1-c1cc(F)ccc1Cl` (single isomer, unassigned) [Compound 519, (6-(5-(2-chloro-5-fluorophenyl)-4-methyl-1H-pyrazol-1-yl)-2-azaspiro [3.3]heptan-2-yl) (2-fluoro-5-hydroxyphenyl) methanone]: on MAGL enzyme, the “A: degree to which MAGL enzymatic activity returned following washout of test compounds” value (“A: degree” for short) amounted to 155 and the “B: % MAGL activity returning after washout” value (“B: % MAGL activity returning” below) is above 50%. In data set [2] (setting [3]), the IC50 lay within 0.05 to 0.15 µM.
Compound `Cc1cc(C2CC3(C2)CN(C(=O)c2cc(O)ccc2F)C3)n(-c2ccccc2C)n1` [Compound 74, (2-fluoro-5-hydroxyphenyl)(6-(3-methyl-1-(o-tolyl)-1H-pyrazol-5-yl)-2-azaspiro[3.3]heptan-2-yl)methanone] yielded an AUC(0-t) in data set [1] (male, C57BL/6, mouse, 30 mg/kg, Protocol A) of 117 ng·h/mL. Moreover, in data set [1] (male, C57BL/6, mouse, 30 mg/kg, Protocol A, read-out: Cmax), the Cmax is 102 ng/g.
On to `Cc1ccccc1-n1nc(C2CC3(C2)CN(C(=O)c2cc(O)ccc2F)C3)cc1C` [Compound 117], for which the IC50 at human recombinant FAAH (setting [4]) is above 10 µM.
Consider `Cc1cc(C2CC3(C2)CN(C(=O)c2ccccc2F)C3)n(-c2ccccc2C)n1` [Compound 122, (2-fluorophenyl)(6-(3-methyl-1-(o-tolyl)-1H-pyrazol-5-yl)-2-azaspiro[3.3]heptan-2-yl)methanone], for which the IC50 on human recombinant FAAH (setting [4]) is above 10 µM; in data set [2] (setting [5]) it was 1 to 5.1 µM.
Regarding `COc1ccc(F)c(C(=O)N2CC3(CC(c4cc(C)nn4-c4ccccc4C)C3)C2)c1` [Compound 123], the IC50 at human recombinant FAAH (setting [4]) was above 10 µM; in data set [2] (Method 2: Cayman Chemical MAGL enzyme, 10 nM, read-out: Potency (MAGL inhibition)), above 10 µM.
On to `Cc1cc(C2CC3(C2)CN(C(=O)c2cccc(O)c2)C3)n(-c2ccccc2C)n1` [Compound 125, (3-hydroxyphenyl)(6-(3-methyl-1-(o-tolyl)-1H-pyrazol-5-yl)-2-azaspiro[3.3]heptan-2-yl)methanone], for which the IC50 is above 10 µM at human recombinant FAAH (setting [4]) and 0.05 to 0.15 µM in data set [2] (Methods 1, 2, read-out: MAGL Potency (Detection Method)).
Turning to `Cc1cc(C2CC3(C2)CN(C(=O)c2c(F)ccc(O)c2F)C3)n(-c2ccccc2C)n1` [Compound 127, (2,6-difluoro-3-hydroxyphenyl)(6-(3-methyl-1-(o-tolyl)-1H-pyrazol-5-yl)-2-azaspiro[3.3]heptan-2-yl)methanone], the IC50 on human recombinant FAAH (setting [4]) is above 10 µM; in data set [2] (setting [5]), 1 to 5.1 µM.
Consider `O=C(c1cc(O)ccc1F)N1CC2(CC(n3cc(C(F)(F)F)c(-c4ccccc4F)n3)C2)C1` [Compound 473, (2-fluoro-5-hydroxyphenyl){6-[3-(o-fluorophenyl)-4-(trifluoromethyl)-1-pyrazolyl]-2-aza-2-spiro[3.3]heptyl}methanone], for which the “A: degree” value at MAGL enzyme was found to be 41. For the same compound, on MAGL enzyme, the “B: % MAGL activity returning” value is below 50%. Further, the IC50 on human recombinant FAAH (setting [6]) is above 10 µM; in data set [2] (setting [3]) it was below 0.05 µM.
In the case of `O=C(c1cc(O)ccc1F)N1CC2(CC(n3cc(C4CC4)c(-c4ccccc4F)n3)C2)C1` [Compound 493, {6-[4-cyclopropyl-3-(o-fluorophenyl)-1-pyrazolyl]-2-aza-2-spiro[3.3]heptyl}(2-fluoro-5-hydroxyphenyl)methanone], on MAGL enzyme, the “A: degree” value stood at 47 and the “B: % MAGL activity returning” value was below 50%. Besides, at human recombinant FAAH (setting [6]), the IC50 is above 10 µM. The IC50 in data set [2] (setting [3]) was below 0.05 µM.
On to `Cc1cn(C2CC3(C2)CN(C(=O)c2cc(O)ccc2F)C3)nc1-c1cc(F)ccc1Cl` [Compound 520, {6-[3-(2-chloro-5-fluorophenyl)-4-methyl-1-pyrazolyl]-2-aza-2-spiro[3.3]heptyl}(2-fluoro-5-hydroxyphenyl)methanone], for which, at MAGL enzyme, the “A: degree” value was found to be 100 and the “B: % MAGL activity returning” value is reported as above 50%. In data set [2] (setting [3]), the IC50 was below 0.05 µM.
For the compound `O=C(Oc1ccc([N+](=O)[O-])cc1)N1CCC(C(O)(c2ccc3c(c2)OCO3)c2ccc3c(c2)OCO3)CC1` [JZL-184, reference compound], on MAGL enzyme, the “A: degree” value is on record as “complete lack of return of MAGL enzymatic activity after washout” and the “B: % MAGL activity returning” value is listed as below 1%.
